{"source": "ChEMBL document CHEMBL1201862", "about": "“PubChem BioAssay data set” (2004)", "key": {"cells [1]": {"assay": "cells", "details": "A549"}, "cells [2]": {"assay": "cells", "details": "HEK293"}, "cells [3]": {"assay": "cells"}, "[4]": {"assay": "viability loss in HepG2 liver cells – cell-based, ATP luminescence, cherry-pick, set 6, cytotoxicity control, dose response (AID 1053125)", "type": "functional"}, "[5]": {"target": "Disintegrin and metalloproteinase domain-containing protein 17 (Homo sapiens, UniProt P78536)", "sequence (P78536 whole entry, the tested form may be a part)": "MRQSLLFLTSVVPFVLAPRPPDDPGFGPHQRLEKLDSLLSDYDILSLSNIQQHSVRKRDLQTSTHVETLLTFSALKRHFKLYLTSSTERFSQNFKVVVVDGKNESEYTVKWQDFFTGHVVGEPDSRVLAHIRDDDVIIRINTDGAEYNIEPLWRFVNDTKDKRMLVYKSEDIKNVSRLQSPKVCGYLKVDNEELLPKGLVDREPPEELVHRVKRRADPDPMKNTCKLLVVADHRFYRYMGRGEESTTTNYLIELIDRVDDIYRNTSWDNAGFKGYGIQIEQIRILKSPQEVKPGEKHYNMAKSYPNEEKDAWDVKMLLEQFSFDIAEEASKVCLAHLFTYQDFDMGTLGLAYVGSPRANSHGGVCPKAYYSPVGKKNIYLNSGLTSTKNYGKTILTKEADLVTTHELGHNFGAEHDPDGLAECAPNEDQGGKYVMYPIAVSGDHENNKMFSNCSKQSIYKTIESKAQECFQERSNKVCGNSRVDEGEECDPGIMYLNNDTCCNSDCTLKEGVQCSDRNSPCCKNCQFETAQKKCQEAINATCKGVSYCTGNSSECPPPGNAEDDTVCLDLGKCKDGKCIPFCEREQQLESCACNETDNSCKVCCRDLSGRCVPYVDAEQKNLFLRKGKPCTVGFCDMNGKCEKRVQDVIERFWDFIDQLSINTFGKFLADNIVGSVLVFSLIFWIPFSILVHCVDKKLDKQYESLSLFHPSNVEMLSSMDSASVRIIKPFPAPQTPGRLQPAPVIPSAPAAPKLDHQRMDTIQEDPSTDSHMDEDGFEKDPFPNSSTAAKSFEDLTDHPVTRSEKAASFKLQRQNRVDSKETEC", "assay": "inhibition of ADAM17 substrate cleavage – biochemical, quenched FRET substrate, counter-screen for ADAM10 exosite inhibitor project, dose response (AID 743253)"}, "[6]": {"assay": "potency of ADAM10 substrate cleavage blockers – biochemical, QFRET, dose response (AID 743254);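 also: EDANS fluorescence gain as the protease cuts the substrate; inhibitor potency against ADAM10 proteolytic activity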"}, "[7]": {"assay": "viability of BHK-21 cells – cell-based, secondary screen, cytotoxicity control for flavivirus guanylyltransferase probe project (AID 624078)", "type": "functional"}, "Paired box protein Pax-8": {"target": "Paired box protein Pax-8 (Homo sapiens, UniProt Q06710)", "sequence (Q06710 whole entry)": "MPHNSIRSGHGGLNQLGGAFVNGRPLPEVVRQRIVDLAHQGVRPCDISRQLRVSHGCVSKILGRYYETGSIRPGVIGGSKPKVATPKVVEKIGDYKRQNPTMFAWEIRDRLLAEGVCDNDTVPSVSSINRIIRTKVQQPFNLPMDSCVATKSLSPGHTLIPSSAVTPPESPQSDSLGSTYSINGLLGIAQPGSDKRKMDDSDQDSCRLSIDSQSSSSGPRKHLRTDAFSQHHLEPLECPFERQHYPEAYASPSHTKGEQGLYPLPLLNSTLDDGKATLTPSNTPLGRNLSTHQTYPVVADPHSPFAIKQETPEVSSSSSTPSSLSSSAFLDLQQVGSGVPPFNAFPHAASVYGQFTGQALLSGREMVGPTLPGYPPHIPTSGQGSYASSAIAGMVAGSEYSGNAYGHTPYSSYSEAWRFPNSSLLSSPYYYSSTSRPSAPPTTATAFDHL", "assay": "PAX8 transcriptional activity inhibition in RMG-I – RMG-I cells, luciferase, cherry-pick, dose response (AID 687027);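 also: luciferase reporter driven by Pax8 target thyroperoxidase promoter measured by SteadyGlo luminescence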", "type": "functional, cell-based"}, "[8]": {"assay": "viability loss in A549 lung cells – cell-based, 24 h, CellTiter-Glo luminescence, cherry-picks, cytotoxicity control, dose response (AID 1053115)", "type": "functional", "details": "A549, 24 h"}, "Kallikrein-7": {"target": "Kallikrein-7 (Homo sapiens, UniProt P49862)", "sequence (P49862 whole entry)": "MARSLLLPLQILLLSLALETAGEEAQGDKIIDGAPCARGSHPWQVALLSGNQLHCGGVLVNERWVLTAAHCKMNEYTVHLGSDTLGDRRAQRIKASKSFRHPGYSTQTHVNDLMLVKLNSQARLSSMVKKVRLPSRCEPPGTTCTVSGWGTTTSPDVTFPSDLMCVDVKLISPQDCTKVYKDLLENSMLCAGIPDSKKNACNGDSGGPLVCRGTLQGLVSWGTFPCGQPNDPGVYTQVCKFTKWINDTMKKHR", "assay": "Fluorescence Intensity-based biochemical primary high throughput dose response assay to identify activators of kallikrein-7 (K7) zymogen."}, "[9]": {"assay": "inhibitors of non-replicating M. tuberculosis, dose response, luciferase, dry powder (AID 651619)", "type": "functional", "details": "Mycobacterium tuberculosis"}, "[10]": {"assay": "inhibitors of non-replicating M. tuberculosis, dose response, luciferase, dry powder (AID 651620)", "type": "functional", "details": "Mycobacterium tuberculosis"}, "[11]": {"target": "T1, Sentrin-specific protease 8 (Homo sapiens, UniProt Q96LD8)", "T1 sequence (Q96LD8 whole entry)": "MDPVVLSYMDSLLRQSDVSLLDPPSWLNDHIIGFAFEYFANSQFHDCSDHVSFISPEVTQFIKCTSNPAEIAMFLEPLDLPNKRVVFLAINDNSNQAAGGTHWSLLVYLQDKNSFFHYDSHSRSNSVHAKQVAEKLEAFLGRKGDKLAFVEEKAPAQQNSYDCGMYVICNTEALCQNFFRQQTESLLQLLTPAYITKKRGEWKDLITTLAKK", "type": "functional"}, "Caspase-7": {"target": "Caspase-7 (Homo sapiens, UniProt P55210)", "sequence (P55210 24-198 limits assumed)": "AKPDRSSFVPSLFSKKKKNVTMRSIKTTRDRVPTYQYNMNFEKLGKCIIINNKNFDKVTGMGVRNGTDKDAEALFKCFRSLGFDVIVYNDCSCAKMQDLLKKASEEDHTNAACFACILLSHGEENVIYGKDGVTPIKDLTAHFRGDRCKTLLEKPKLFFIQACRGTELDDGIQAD", "sequence (P55210 207-303 limits assumed)": "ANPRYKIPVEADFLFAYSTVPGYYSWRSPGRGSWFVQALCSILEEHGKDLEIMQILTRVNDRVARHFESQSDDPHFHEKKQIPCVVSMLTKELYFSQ", "assay": "caspase-7 enzyme inhibition, selectivity check – biochemical, DEVD-R110 fluorescence, cherry-pick, selectivity assay for caspase-6 inhibitor project, dose response (AID 743295)", "type": "functional"}, "Caspase-6": {"target": "T2, Caspase-6 (Homo sapiens, UniProt P55212)", "T2 sequence (P55212 whole entry)": "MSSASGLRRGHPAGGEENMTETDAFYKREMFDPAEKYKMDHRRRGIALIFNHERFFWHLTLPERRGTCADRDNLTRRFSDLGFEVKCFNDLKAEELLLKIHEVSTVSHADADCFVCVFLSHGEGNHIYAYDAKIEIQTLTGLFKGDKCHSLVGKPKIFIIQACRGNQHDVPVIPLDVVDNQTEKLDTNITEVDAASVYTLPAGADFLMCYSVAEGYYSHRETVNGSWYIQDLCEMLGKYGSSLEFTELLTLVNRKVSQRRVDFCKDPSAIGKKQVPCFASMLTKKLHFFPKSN", "assay": "inhibition of CASP6 peptide cleavage – biochemical, VEID-R110 fluorescence, cherry-pick, dose response (AID 720632)"}, "Caspase-9": {"target": "Caspase-9 (Homo sapiens, UniProt P55211)", "sequence (P55211 1-315 limits assumed)": "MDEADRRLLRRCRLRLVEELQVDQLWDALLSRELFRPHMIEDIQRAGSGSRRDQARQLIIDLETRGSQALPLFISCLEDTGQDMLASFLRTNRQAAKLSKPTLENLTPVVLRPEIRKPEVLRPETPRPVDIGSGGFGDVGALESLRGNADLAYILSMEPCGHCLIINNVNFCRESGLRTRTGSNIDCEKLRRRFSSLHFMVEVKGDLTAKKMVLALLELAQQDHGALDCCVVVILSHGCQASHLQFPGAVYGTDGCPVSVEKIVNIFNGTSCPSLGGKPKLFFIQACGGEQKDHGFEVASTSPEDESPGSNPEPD", "sequence (P55211 331-416 limits assumed)": "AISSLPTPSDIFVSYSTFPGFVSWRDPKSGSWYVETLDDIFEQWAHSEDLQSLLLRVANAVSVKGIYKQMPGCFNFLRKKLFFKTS", "assay": "inhibitors of purified CASP9 protease – biochemical, fluorescence, plate reader, cherry-picked samples, selectivity assay for caspase-6 inhibitor project, dose response (AID 743293)"}, "Caspase-8": {"target": "Caspase-8 (Homo sapiens, UniProt Q14790)", "sequence (Q14790 217-374 limits assumed)": "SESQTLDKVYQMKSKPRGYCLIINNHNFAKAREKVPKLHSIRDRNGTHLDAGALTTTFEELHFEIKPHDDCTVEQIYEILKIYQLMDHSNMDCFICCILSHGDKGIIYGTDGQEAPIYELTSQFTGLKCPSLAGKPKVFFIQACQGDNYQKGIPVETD", "sequence (Q14790 385-479 limits assumed)": "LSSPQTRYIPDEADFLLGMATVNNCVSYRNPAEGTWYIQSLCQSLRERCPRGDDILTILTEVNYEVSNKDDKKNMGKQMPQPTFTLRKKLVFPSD", "assay": "inhibitors of purified CASP8 protease – biochemical, Z-IETD-R110 fluorescence, cherry-picked samples, selectivity assay for caspase-6 inhibitor project, dose response (AID 743294)"}, "Caspase-3": {"target": "T3, Caspase-3 (Homo sapiens, UniProt P42574)", "T3 sequence (P42574 whole entry)": "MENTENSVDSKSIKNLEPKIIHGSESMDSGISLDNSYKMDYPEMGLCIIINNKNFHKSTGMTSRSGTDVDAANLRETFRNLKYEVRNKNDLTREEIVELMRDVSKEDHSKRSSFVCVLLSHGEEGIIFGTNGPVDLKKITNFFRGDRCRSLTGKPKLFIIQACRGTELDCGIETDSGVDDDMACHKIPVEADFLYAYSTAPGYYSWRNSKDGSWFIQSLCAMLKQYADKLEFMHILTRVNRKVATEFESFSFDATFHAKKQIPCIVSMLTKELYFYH", "assay": "human caspase-3 protease activity blockade – biochemical, fluorescence, cherry-picked samples, selectivity assay for caspase-6 allosteric inhibitor project, dose response (AID 743291)"}, "[12]": {"target": "T1, Sentrin-specific protease 8", "type": "functional", "remark": "listed apart in the source"}, "HEK293": {"system": "HEK293", "assay": "viability loss in HEK293T cells – cell-based, ATP luminescence, cherry-pick samples, cytotoxicity control, dose response (AID 687005);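 also: cells exposed to compound for 48 hours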", "type": "functional", "details": "Homo sapiens"}, "[13]": {"assay": "HEK293 Cytotoxicity Assay Measured in Cell-Based System Using Plate Reader - 7071-01_Inhibitor_Dose_CherryPick_Activity_Set2.", "type": "functional"}, "[14]": {"assay": "HIV-1 AD8 envelope cell-cell fusion blockers – cherry-pick, dose response (AID 652062);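 also: luciferase signal from cell-cell fusion driven by HIV-1 clade B AD8 Env; potency is for inhibitors of fusion seen as a drop in luminescence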", "type": "functional, cell-based"}, "[15]": {"assay": "inhibition of Env-driven cell fusion – HIV entry, plate reader, dry powder, dose response (AID 687023)", "type": "functional, cell-based"}, "[16]": {"assay": "blockers of HIV-1 envelope-mediated cell-cell fusion – cherry-pick, dose response (AID 652057)", "type": "functional, cell-based"}, "Estrogen receptor beta": {"target": "Estrogen receptor beta (Homo sapiens, UniProt Q92731)", "sequence (Q92731 whole entry)": "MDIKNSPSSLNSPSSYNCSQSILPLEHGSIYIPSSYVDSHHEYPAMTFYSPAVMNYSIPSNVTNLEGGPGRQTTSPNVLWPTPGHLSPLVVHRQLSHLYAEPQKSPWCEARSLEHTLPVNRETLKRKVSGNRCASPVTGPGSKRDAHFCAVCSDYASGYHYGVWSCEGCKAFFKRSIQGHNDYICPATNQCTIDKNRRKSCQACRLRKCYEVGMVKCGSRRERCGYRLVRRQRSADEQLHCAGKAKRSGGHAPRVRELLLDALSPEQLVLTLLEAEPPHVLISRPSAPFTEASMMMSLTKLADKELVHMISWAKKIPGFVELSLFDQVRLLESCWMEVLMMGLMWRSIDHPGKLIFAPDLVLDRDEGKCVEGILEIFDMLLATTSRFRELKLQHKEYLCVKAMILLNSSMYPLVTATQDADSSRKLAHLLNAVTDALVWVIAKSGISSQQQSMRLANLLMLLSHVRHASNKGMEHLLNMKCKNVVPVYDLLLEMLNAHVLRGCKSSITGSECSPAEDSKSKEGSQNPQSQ"}, "Galanin receptor type 3": {"target": "Galanin receptor type 3 (Homo sapiens, UniProt O60755)", "sequence (O60755 whole entry)": "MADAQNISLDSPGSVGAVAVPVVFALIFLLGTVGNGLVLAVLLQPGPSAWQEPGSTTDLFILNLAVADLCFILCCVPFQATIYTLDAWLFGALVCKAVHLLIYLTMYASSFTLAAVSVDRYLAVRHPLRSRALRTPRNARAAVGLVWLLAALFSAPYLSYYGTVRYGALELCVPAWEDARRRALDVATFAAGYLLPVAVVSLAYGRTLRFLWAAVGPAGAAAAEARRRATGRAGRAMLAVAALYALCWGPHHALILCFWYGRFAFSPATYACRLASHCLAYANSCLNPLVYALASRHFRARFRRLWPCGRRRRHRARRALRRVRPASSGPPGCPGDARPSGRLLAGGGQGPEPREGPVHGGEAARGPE", "assay": "Fluorescence-based cell-based primary high throughput dose response assay to identify antagonists of the Galanin Receptor 3 (GalR3).", "type": "functional"}, "[17]": {"assay": "blockers of HIV-1 ZM109 envelope-driven cell-cell fusion – HeLa effector, CEM target cells, luciferase, cherry-pick, dose response (AID 652058)", "type": "functional, cell-based"}, "cells [18]": {"assay": "cells", "type": "functional, cell-based", "details": "HEK-CNG"}, "[19]": {"assay": "viability loss in CEM21 cells – cell-based, plate reader, dry powder, cytotoxicity control, dose response (AID 687026)", "type": "functional"}}, "note": "Active and inactive are the calls of the source.", "data": [{"smiles": "CN1CCc2c(sc(NC(=O)c3cc(Cl)sc3Cl)c2C(N)=O)C1", "values": [{"measurement": "AC50", "setting": "cells [1]", "value": "> 52 µM (inactive)"}, {"measurement": "AC50", "setting": "cells [2]", "value": "33.7 µM (active)"}, {"measurement": "AC50", "setting": "cells [3]", "value": "19.9 µM (active)"}, {"measurement": "AC50", "setting": "[4]", "value": "> 52 µM (inactive)"}]}, {"smiles": "Cc1cccc(C)c1-c1ccc(CN2C(CC(C)C)C(=O)N(Cc3cn(CCO)nn3)CCS2(=O)=O)cc1", "note": "(centres undefined)", "values": [{"measurement": "IC50", "setting": "[5]", "value": "> 69.5 µM (inactive)"}, {"measurement": "IC50", "setting": "[6]", "value": "12.3 µM (inactive)"}]}, {"smiles": "O=[N+]([O-])c1cccc(S(=O)(=O)Nc2cc(SCc3ccccc3)c(O)c3ccccc23)c1", "values": [{"measurement": "CC50", "setting": "[7]", "value": "14.9 µM (active)"}]}, {"smiles": "Cc1ccc(S(=O)(=O)Nc2cccc3c2O[C@@H](CN(C)C(=O)Nc2ccc(C(F)(F)F)cc2)[C@@H](C)CN([C@H](C)CO)C3=O)cc1", "values": [{"measurement": "AC50", "setting": "Paired box protein Pax-8", "value": "12.6 µM (active)"}, {"measurement": "AC50", "setting": "[8]", "value": "42.6 µM (active)"}]}, {"smiles": "COc1ccc(OC)c(/C=C/C(=O)NCCc2nc3ccccc3[nH]2)c1", "values": [{"measurement": "EC50", "setting": "Kallikrein-7", "value": "> 69.5 µM (inactive)"}]}, {"smiles": "c1ccc(CSc2nnc(-c3cccnc3)o2)nc1", "values": [{"measurement": "IC90", "setting": "[9]", "value": "16 µM (active)"}, {"measurement": "IC90", "setting": "[10]", "value": "16 µM (active)"}]}, {"smiles": "O=C1Cc2ccccc2C(=O)N1", "values": [{"measurement": "IC50", "setting": "[11]", "value": "0.0408 µM (active)"}, {"measurement": "AC50", "setting": "Caspase-7", "value": "1.32 µM (active)"}, {"measurement": "AC50", "setting": "Caspase-6", "value": "1.22 µM (active)"}, {"measurement": "AC50", "setting": "Caspase-9", "value": "1.34 µM (active)"}, {"measurement": "AC50", "setting": "Caspase-8", "value": "1.09 µM (active)"}, {"measurement": "AC50", "setting": "Caspase-3", "value": "0.74 µM (active)"}, {"measurement": "IC50", "setting": "[12]", "value": "0.702 µM (active)"}]}, {"smiles": "Cc1ccc(S(=O)(=O)Nc2ccc3c(c2)C(=O)N([C@@H](C)CO)C[C@@H](C)[C@@H](CN(C)S(=O)(=O)c2ccc(Cl)cc2)OCCCC[C@H](C)O3)cc1", "values": [{"measurement": "AC50", "setting": "HEK293", "value": "24.4 µM (active)"}, {"measurement": "AC50", "setting": "[13]", "value": "24.4 µM (active)"}]}, {"smiles": "Cc1oc(-c2ccc(Cl)cc2)nc1CN1CCCC(C(=O)NCc2cccnc2)C1", "note": "(centres undefined)", "values": [{"measurement": "AC50", "setting": "[14]", "value": "4.75 µM (active)"}, {"measurement": "AC50", "setting": "[15]", "value": "3.91 µM (active)"}, {"measurement": "AC50", "setting": "[16]", "value": "4.1 µM (active)"}, {"measurement": "IC50", "setting": "Estrogen receptor beta", "value": "> 50 µM (not active)"}, {"measurement": "IC50", "setting": "Galanin receptor type 3", "value": "2 µM (active)"}, {"measurement": "AC50", "setting": "[17]", "value": "< 0.26 µM (active)"}, {"measurement": "EC50", "setting": "cells [18]", "value": "> 29.9 µM (inactive)"}, {"measurement": "AC50", "setting": "[19]", "value": "> 70 µM (inactive)"}]}]}
